In test [1] the target is T1, Muscarinic acetylcholine receptor M2 (Homo sapiens, UniProt P08172).
T1 sequence (P08172 whole entry): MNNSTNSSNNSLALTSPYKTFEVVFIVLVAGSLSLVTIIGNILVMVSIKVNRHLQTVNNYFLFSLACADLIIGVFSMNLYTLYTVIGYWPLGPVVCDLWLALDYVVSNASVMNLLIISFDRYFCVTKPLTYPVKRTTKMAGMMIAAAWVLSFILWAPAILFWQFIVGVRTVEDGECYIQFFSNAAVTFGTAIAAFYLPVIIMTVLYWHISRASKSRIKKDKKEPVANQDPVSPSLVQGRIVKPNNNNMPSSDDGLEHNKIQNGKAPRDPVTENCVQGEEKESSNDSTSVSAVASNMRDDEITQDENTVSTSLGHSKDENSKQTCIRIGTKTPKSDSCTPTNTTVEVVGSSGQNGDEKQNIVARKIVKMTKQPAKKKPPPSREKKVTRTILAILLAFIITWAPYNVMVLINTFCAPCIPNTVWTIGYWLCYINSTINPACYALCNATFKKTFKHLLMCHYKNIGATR
Briefly: Antagonist activity at cloned muscarinic M2 receptor expressed in CHO cells by measuring calcium mobilization. The test is classed as functional, cell-based. (A change in cytosolic calcium serves as a functional read-out for many receptors and channels.)

Test [2] has as its target T2, Muscarinic acetylcholine receptor M1 (Homo sapiens, UniProt P11229).
T2 sequence (P11229 whole entry): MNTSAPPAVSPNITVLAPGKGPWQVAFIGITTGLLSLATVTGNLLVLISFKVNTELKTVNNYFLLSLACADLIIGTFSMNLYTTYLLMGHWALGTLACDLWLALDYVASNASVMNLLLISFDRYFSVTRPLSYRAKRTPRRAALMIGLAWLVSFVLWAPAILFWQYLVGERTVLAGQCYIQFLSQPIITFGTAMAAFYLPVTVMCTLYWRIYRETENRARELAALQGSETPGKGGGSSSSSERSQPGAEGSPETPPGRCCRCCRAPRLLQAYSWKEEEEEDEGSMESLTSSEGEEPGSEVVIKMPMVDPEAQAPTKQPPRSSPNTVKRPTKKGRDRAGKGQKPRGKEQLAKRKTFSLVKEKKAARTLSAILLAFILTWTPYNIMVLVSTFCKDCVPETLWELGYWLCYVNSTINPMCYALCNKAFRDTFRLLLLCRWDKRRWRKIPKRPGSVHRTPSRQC
The experiment in a line: Antagonist activity at cloned muscarinic M1 receptor expressed in CHO cells by measuring calcium mobilization. The test is classed as functional, cell-based.

Test [3] has as its target Muscarinic acetylcholine receptor M3 (Homo sapiens, UniProt P20309). The experiment in a line: Antagonist activity at cloned muscarinic M3 receptor expressed in CHO cells by measuring calcium mobilization. The test is classed as functional, cell-based.
In test [4] the target is Muscarinic acetylcholine receptor M1 and M3 (Homo sapiens) (UniProt P20309+P11229). The experiment in a line: Selectivity for cloned muscarinic M3 receptor over cloned muscarinic M1 receptor.
Muscarinic acetylcholine receptor M1 and M3 (Homo sapiens), sequence (P20309 whole entry, looked up, one chain of several): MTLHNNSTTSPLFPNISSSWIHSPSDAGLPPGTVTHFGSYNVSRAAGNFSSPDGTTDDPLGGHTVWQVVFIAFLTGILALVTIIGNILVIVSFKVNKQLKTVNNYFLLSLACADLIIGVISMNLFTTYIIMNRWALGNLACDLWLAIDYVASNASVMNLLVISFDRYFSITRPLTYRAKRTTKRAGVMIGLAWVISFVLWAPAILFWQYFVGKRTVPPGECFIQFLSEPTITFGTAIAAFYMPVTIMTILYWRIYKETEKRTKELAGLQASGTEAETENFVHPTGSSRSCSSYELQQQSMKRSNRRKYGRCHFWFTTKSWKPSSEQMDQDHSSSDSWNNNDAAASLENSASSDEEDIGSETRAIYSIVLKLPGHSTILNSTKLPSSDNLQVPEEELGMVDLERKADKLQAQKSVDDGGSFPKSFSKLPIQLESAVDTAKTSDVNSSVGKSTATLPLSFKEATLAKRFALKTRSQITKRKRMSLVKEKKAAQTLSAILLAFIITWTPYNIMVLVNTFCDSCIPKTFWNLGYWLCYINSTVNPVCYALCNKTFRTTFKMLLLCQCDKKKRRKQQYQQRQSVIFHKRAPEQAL
For test [5], the target named is Muscarinic acetylcholine receptors; M2 & M3 (Homo sapiens) (UniProt P20309+P08172). Briefly: Selectivity for cloned muscarinic M3 receptor over cloned muscarinic M2 receptor.

Muscarinic acetylcholine receptor M3, sequence (P20309 whole entry): as the sequence (P20309 whole entry, looked up, one chain of several) above

As for `CN1[C@@H]2CC[C@H]1C[C@@H](OC(=O)N(Cc1ccsc1)c1ccccc1)C2`, the values for the IC50 in test [1], in test [2] and in test [3] were 90.7 nM, 73.8 nM and 27.5 nM, respectively. Further, the Ratio IC50 in test [4] stood at 2.7; in test [5], 3.3.
On to `Cc1ccsc1CN(C(=O)O[C@H]1C[C@H]2CC[C@@H](C1)N2C)c1ccccc1`, for which the IC50 (usually the midpoint of a concentration-inhibition curve) was found to be 191 nM in test [1], 117 nM in test [2] and 108 nM in test [3]. The results for the Ratio IC50 in test [4] and in test [5] were 1.1 and 1.8, respectively.
For `CN1[C@@H]2CC[C@H]1C[C@H](OC(=O)N(Cc1ccccc1)c1cccs1)C2`, the IC50 in test [1] was determined as 26.5 nM; in test [2], 45.1 nM; in test [3] it was 22.9 nM. Also, the Ratio IC50 in test [4] turned out to be 2; in test [5] it was 1.2.
As to `C[N+]1(C)[C@@H]2CC[C@H]1C[C@H](OC(=O)N(CC1CCCCC1)c1ccsc1)C2`, the IC50 amounted to 55.9 nM in test [1], 5.8 nM in test [2] and 11.3 nM in test [3]. The values for the Ratio IC50 in test [4] and in test [5] were 0.5 and 5, respectively.
For the compound `C[N+]1(C)[C@@H]2CC[C@H]1C[C@@H](OC(=O)N(Cc1cccc(C#N)c1)c1ccsc1)C2`, the IC50 in test [1] worked out at 638 nM; in test [2], 55.6 nM; in test [3], 137 nM. Also, the Ratio IC50 in test [4] is 0.4; in test [5] it was 4.7.
As to `CN1[C@@H]2CC[C@H]1C[C@H](OC(=O)N(Cc1cccs1)c1ccccc1)C2`, the values for the IC50 in test [1], in test [2] and in test [3] were 38.2 nM, 48.3 nM and 20.3 nM, respectively. Besides, the Ratio IC50 in test [4] turned out to be 2.4; in test [5], 1.9.
`COc1ccc(CN(C(=O)O[C@H]2C[C@H]3CC[C@@H](C2)[N+]3(C)C)c2ccccc2)cc1`: the IC50 came to 688 nM in test [1], 86 nM in test [2] and 154 nM in test [3]. Moreover, the Ratio IC50 in test [4] amounted to 0.6; in test [5], 4.4.
Consider `CN1[C@@H]2CC[C@H]1C[C@@H](OC(=O)N(Cc1ccc(C#N)cc1)c1ccccc1)C2`, for which the IC50 amounted to 1350 nM in test [1], 847 nM in test [2] and 1160 nM in test [3]. The Ratio IC50 amounted to 0.7 in test [4] and 1.1 in test [5].
As to `CN1[C@@H]2CC[C@H]1C[C@H](OC(=O)N(Cc1ccccc1)c1ccsc1)C2`, the IC50 in test [1] was 39.1 nM; in test [2] it was 19.1 nM; in test [3], 10.9 nM. The Ratio IC50 in test [4] was found to be 1.7; in test [5], 3.6.
The corresponding values for `CN1[C@@H]2CC[C@H]1C[C@H](OC(=O)N(Cc1ccsc1)c1ccsc1)C2` are 19.6 nM, 13.8 nM, 7.2 nM, 1.9 and 2.7.
`Cc1ccc(CN(C(=O)O[C@@H]2C[C@H]3CC[C@@H](C2)[N+]3(C)C)c2ccccc2)s1`: the IC50 in test [1] amounted to 60.8 nM; in test [2], 15.8 nM; in test [3] it was 21.2 nM. In addition, the Ratio IC50 worked out at 0.8 in test [4] and 2.9 in test [5].
`COc1cccc(CN(C(=O)O[C@@H]2C[C@H]3CC[C@@H](C2)[N+]3(C)C)c2ccccc2)c1`: the IC50 worked out at 1000 nM in test [1], 612 nM in test [2] and 972 nM in test [3]. Besides, the figures for the Ratio IC50 in test [4] and in test [5] were 0.6 and 1, respectively.
Regarding `C[N+]1(C)[C@@H]2CC[C@H]1C[C@@H](OC(=O)N(Cc1ccc(C#N)cc1)c1ccccc1)C2`, the results for the IC50 in test [1], in test [2] and in test [3] were 1490 nM, 258 nM and 714 nM, respectively. The Ratio IC50 in test [4] was found to be 0.4; in test [5], 2.1.
`CN1[C@@H]2CC[C@H]1C[C@@H](OC(=O)N(CC1CCCCC1)c1ccsc1)C2`: the IC50 in test [1] is 271 nM; in test [2], 126 nM; in test [3], 109 nM. Besides, the Ratio IC50 in test [4] is 1.1; in test [5] it was 2.5.
As to `C[N+]1(C)[C@@H]2CC[C@H]1C[C@H](OC(=O)N(Cc1ccc(Br)cc1)c1ccccc1)C2`, the IC50 turned out to be 400 nM in test [1], 33.4 nM in test [2] and 56.6 nM in test [3]. The Ratio IC50 turned out to be 0.6 in test [4] and 7.1 in test [5].
As for `CN1[C@@H]2CC[C@H]1C[C@@H](OC(=O)N(Cc1cccc(Br)c1)c1ccccc1)C2`, the IC50 was 2160 nM in test [1], 1960 nM in test [2] and 2310 nM in test [3]. The Ratio IC50 in test [4] and in test [5] was 0.9 throughout.
With `Cc1ccsc1CN(C(=O)O[C@H]1C[C@H]2CC[C@@H](C1)[N+]2(C)C)c1ccccc1`, the IC50 stood at 34.7 nM in test [1], 3.8 nM in test [2] and 6.4 nM in test [3]. Besides, the Ratio IC50 was determined as 0.6 in test [4] and 5.4 in test [5].
Take `C[N+]1(C)[C@@H]2CC[C@H]1C[C@H](OC(=O)N(Cc1cccc(Br)c1)c1ccccc1)C2`: the IC50 in test [1] came out at 520 nM; in test [2], 210 nM; in test [3] it was 342 nM. Moreover, the values for the Ratio IC50 in test [4] and in test [5] were 0.6 and 1.5, respectively.
On to `CN1[C@@H]2CC[C@H]1C[C@@H](OC(=O)N(Cc1ccccc1Br)c1ccccc1)C2`, for which the IC50 in test [1] is 1400 nM; in test [2] it was 1390 nM; in test [3], 1140 nM. For the same compound, the Ratio IC50 in test [4] and in test [5] was 1.2 in each case.
Regarding `C[N+]1(C)[C@@H]2CC[C@H]1C[C@H](OC(=O)N(Cc1ccccc1Br)c1ccccc1)C2`, the IC50 in test [1] stood at 666 nM; in test [2] it was 420 nM; in test [3] it was 407 nM. Moreover, the Ratio IC50 in test [4] is 1; in test [5], 1.6.
On to `CN1[C@@H]2CC[C@H]1C[C@H](OC(=O)N(Cc1ccc(Br)cc1)c1ccccc1)C2`, for which the concentration for half-maximal inhibition (IC50) in test [1] came to 1420 nM; in test [2], 813 nM; in test [3] it was 721 nM. The Ratio IC50 came to 1.1 in test [4] and 2 in test [5].
Turning to `COc1cccc(CN(C(=O)O[C@@H]2C[C@H]3CC[C@@H](C2)N3C)c2ccccc2)c1`, the IC50 in test [1] was 1170 nM; in test [2] it was 1210 nM; in test [3] it was 2140 nM. The Ratio IC50 in test [4] was 0.6; in test [5], 0.5.
Take `CN1[C@@H]2CC[C@H]1C[C@H](OC(=O)N(Cc1ccccc1)c1ccccc1)C2`: the IC50 was determined as 254 nM in test [1], 161 nM in test [2] and 74.5 nM in test [3]. The Ratio IC50 stood at 2.2 in test [4] and 3.4 in test [5].
Take `CN1[C@@H]2CC[C@H]1C[C@H](OC(=O)N(Cc1ccoc1)c1ccccc1)C2`: the IC50 came to 82.5 nM in test [1], 84.5 nM in test [2] and 57.3 nM in test [3]. The Ratio IC50 in test [4] turned out to be 1.5; in test [5], 1.4.
Regarding `Cc1ccoc1CN(C(=O)O[C@@H]1C[C@H]2CC[C@@H](C1)N2C)c1ccccc1`, the IC50 in test [1] amounted to 468 nM; in test [2], 349 nM; in test [3], 428 nM. For the same compound, the Ratio IC50 in test [4] amounted to 0.8; in test [5], 1.1.
As for `Cc1ccc(CN(C(=O)O[C@@H]2C[C@H]3CC[C@@H](C2)N3C)c2ccccc2)s1`, the IC50 was determined as 410 nM in test [1], 518 nM in test [2] and 262 nM in test [3]. For the same compound, the Ratio IC50 worked out at 2 in test [4] and 0.4 in test [5].
For the compound `Cc1ccoc1CN(C(=O)O[C@H]1C[C@H]2CC[C@@H](C1)[N+]2(C)C)c1ccccc1`, the IC50 in test [1] was found to be 229 nM; in test [2], 15.2 nM; in test [3] it was 42.3 nM. Moreover, the values for the Ratio IC50 in test [4] and in test [5] were 0.4 and 5.4, respectively.
With `COc1ccc(CN(C(=O)O[C@H]2C[C@H]3CC[C@@H](C2)N3C)c2ccccc2)cc1`, the IC50 in test [1] amounted to 1360 nM; in test [2], 734 nM; in test [3], 776 nM. For the same compound, the results for the Ratio IC50 in test [4] and in test [5] were 0.9 and 1.8, respectively.
For `CN1[C@@H]2CC[C@H]1C[C@@H](OC(=O)N(Cc1ccc(C#N)cc1)c1ccsc1)C2`, the IC50 was found to be 363 nM in test [1], 75.8 nM in test [2] and 137 nM in test [3]. The Ratio IC50 is 0.6 in test [4] and 2.6 in test [5].
